{
  "source": "the supplement of paper PMC10307832",
  "experiment_in_all_cases": "relative viability (nuclei count vs DMSO), 5 days (fraction); higher = more cells survive",
  "key": {"[1]": {"compound": "COc1cc2nc(N3CCCN(C)CC3)nc(NC3CCN(Cc4ccccc4)CC3)c2cc1OC + CC(=O)c1c(C)c2cnc(Nc3ccc(N4CCNCC4)cn3)nc2n(C2CCCC2)c1=O [Palbociclib] (partner 0.5 µM)", "procedure,_shortened": "(§1)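 After 5 days of treatment, lung cancer cells in 1536-well plates were fixed and stained in a single step (final 0.05% Triton X-100, 1% formaldehyde, 1 ug/ml Hoechst) and their nuclei counted on 4× images. Treatment had been applied by pin tool the day after seeding as one drug alone or as a fixed anchor-drug dose with five library-drug doses (not always all listed) in √10 steps. Relative viability is the nuclei count of treated wells divided by that of vehicle wells, and values are medians of duplicate plates.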"}, "[2]": {"compound": "COc1cc2nc(N3CCCN(C)CC3)nc(NC3CCN(Cc4ccccc4)CC3)c2cc1OC + C[C@]1(O)C[C@@H](c2nc(-c3ccc4ccc(-c5ccccc5)nc4c3)c3c(N)nccn32)C1 [Linsitinib] (partner 1 µM)", "procedure,_shortened": "as §1"}, "[3]": {"compound": "COc1cc2nc(N3CCCN(C)CC3)nc(NC3CCN(Cc4ccccc4)CC3)c2cc1OC + O=C(c1cc(Cc2n[nH]c(=O)c3ccccc23)ccc1F)N1CCN(C(=O)C2CC2)CC1 [Olaparib] (partner 8 µM)", "procedure,_shortened": "as §1"}, "[4]": {"compound": "Cc1cc([C@@H](C)Nc2ccccc2C(=O)O)c2nc(N3CCOCC3)cc(=O)n2c1 [AZD6482] + C[C@@H](Oc1cc(-c2cnn(C3CCNCC3)c2)cnc1N)c1c(Cl)ccc(F)c1Cl [Crizotinib] (partner 1 µM)", "procedure,_shortened": "as §1"}},
  "data": [
    {"cell line": "UMC-11", "values": [
      {"measurement": "relative viability", "setting": "[1]; first compound 0.2 µM", "result": 0.374},
      {"measurement": "relative viability", "setting": "[1]; first compound 0.6325 µM", "result": 0.389},
      {"measurement": "relative viability", "setting": "[1]; first compound 2 µM", "result": 0.317},
      {"measurement": "relative viability", "setting": "[1]; first compound 6.325 µM", "result": 0.259},
      {"measurement": "relative viability", "setting": "[2]; first compound 0.2 µM", "result": 1.03},
      {"measurement": "relative viability", "setting": "[2]; first compound 0.6325 µM", "result": 1.03},
      {"measurement": "relative viability", "setting": "[2]; first compound 2 µM", "result": 1.05},
      {"measurement": "relative viability", "setting": "[2]; first compound 6.325 µM", "result": 1.04},
      {"measurement": "relative viability", "setting": "[3]; first compound 0.2 µM", "result": 0.38},
      {"measurement": "relative viability", "setting": "[3]; first compound 0.6325 µM", "result": 0.391},
      {"measurement": "relative viability", "setting": "[3]; first compound 2 µM", "result": 0.385},
      {"measurement": "relative viability", "setting": "[3]; first compound 6.325 µM", "result": 0.221},
      {"measurement": "relative viability", "setting": "[4]; first compound 0.08 µM", "result": 0.505},
      {"measurement": "relative viability", "setting": "[4]; first compound 0.253 µM", "result": 0.578},
      {"measurement": "relative viability", "setting": "[4]; first compound 0.8 µM", "result": 0.628},
      {"measurement": "relative viability", "setting": "[4]; first compound 2.53 µM", "result": 0.516},
      {"measurement": "relative viability", "setting": "[4]; first compound 8 µM", "result": 0.511}
    ]}
  ]
}
